Bounds are passed on as bounds.

The subject of one series is HPV-11. In words: HPV transient replication assay (E1/E2 expression vectors plus ori plasmid, qPCR of replicated DNA). In kind it is cell-based, human papillomavirus. The settings on record: for SI90 (CC50/EC90): selectivity index. The source says:
(§1) Specifically, in these tests, vectors for expression of an HPV genotype-matched set of viral El and E2 proteins (derived from virus strain HPV-11) along with an HPV ori-containing plasmid were cotransfected into HEK293 cells. […] Low molecular weight DNA was harvested 2 days post-transfection and digested with Dpnl and exonuclease Ill to remove unreplicated transfected plasmid DNA. The replicated DNA was then subjected to real time qPCR (quantitative polymerase chain reaction) analyses in triplicate. Two controls were performed. One was to omit the El expression vector to provide a background amount of undigested and unreplicated DNA. The other, positive control was treatment with the known inhibitor cidofovir, as mentioned above. A toxicity assay based upon cell viability at the time of harvest on day 2 was performed alongside each transient replication assay in 293 cells. The test compounds were added 4 hours post transfection for a total exposure of 44 hours. More than 1×10^5 cells were scored in a BioRad Automatic Cell Counter, with a determination of the total numbers, the numbers of trypan blue stained (dead) cells, and the % of dead cells.
In general terms: In qPCR the cycle at which signal appears reflects the starting amount.

Another series can be described thus: in vitro. The settings on record: human.
Excerpt: as §1

In the case of `Nc1ccn(C[C@@H](CO)OCP(=O)(O)O)c(=O)n1` [Cidofovir, cidofovir], the EC90 in the series with HPV-11 (Human papillomavirus, HPV-11 E1/E2 + ori plasmid in HEK293 cells, compounds tested at 1, 10, 100 μM, 44 hours exposure, read-out: EC90 (concentration that reduces viral replication by 90%)) is greater than 200 µM. In the series on HPV-11, the “SI90 (CC50/EC90)” value is on record as 1. The compound further gave a CC50 at 44 h in the series “in vitro” greater than 200 µM.

`CCN(CC)Cc1cc(Nc2ccnc3cc(Cl)ccc23)ccc1O` [Amodiaquine, amodiaquine]: the “SI90 (CC50/EC90)” value in the series with HPV-11 is recorded as greater than 2. The compound also showed a CC50 at 44 h in “in vitro” greater than 100 µM.

The record behind these values is patent US20140011839A1, “COMPOSITIONS AND METHODS FOR TREATING AND INHIBITING VIRAL INFECTIONS” (priority 2012, published 2014).
